Laboratory results from article PMC5218480 (PLoS ONE, 2017).

Tested on: MV-4-11 cells
Experiment: Gene expression microarray analysis (Affymetrix PrimeView) and GSEA
Type: cell-based, human
Design: RFU PODN (11730768_x_at) / Fold change /veh PODN (11730768_x_at) / RFU LINC00158 (11744669_a_at) / Fold change /veh LINC00158 (11744669_a_at) / RFU DUSP10 (11751237_a_at) / Fold change /veh DUSP10 (11751237_a_at) / RFU ID3 (11757404_x_at) / Fold change /veh ID3 (11757404_x_at) / RFU PLEKHG5 (11737974_s_at) / Fold change /veh PLEKHG5 (11737974_s_at) / RFU LRRC4B (11730491_at) / Fold change /veh LRRC4B (11730491_at) / RFU GIMAP4 (11747438_a_at) / Fold change /veh GIMAP4 (11747438_a_at) / RFU KRT8 (11758183_x_at) / Fold change /veh KRT8 (11758183_x_at) / RFU CNN1 (11734310_a_at) / Fold change /veh CNN1 (11734310_a_at) / RFU VPS37D (11726825_at) / Fold change /veh VPS37D (11726825_at) / RFU C10orf10 (11716522_x_at) / Fold change /veh C10orf10 (11716522_x_at) / RFU KIR2DL2 /// KIR2DL4 /// KIR2DL5A /// KIR2DL5B /// KIR2DS1 /// KIR2DS2 /// KIR2DS3 /// KIR2DS4 /// KIR3DL3 /// KIR3DL3 /// KIR3DS1 (11738374_at) / Fold change /veh KIR2DL2 /// KIR2DL4 /// KIR2DL5A /// KIR2DL5B /// KIR2DS1 /// KIR2DS2 /// KIR2DS3 /// KIR2DS4 /// KIR3DL3 /// KIR3DL3 /// KIR3DS1 (11738374_at) / RFU C1QL1 (11718748_at) / Fold change /veh C1QL1 (11718748_at) / RFU TMPRSS4 (11747572_a_at) / Fold change /veh TMPRSS4 (11747572_a_at) / RFU HAMP (11756126_x_at) / Fold change /veh HAMP (11756126_x_at) / RFU RNFT2 (11725882_a_at) / Fold change /veh RNFT2 (11725882_a_at) / RFU NR4A2 (11747474_a_at) / Fold change /veh NR4A2 (11747474_a_at) / RFU ABCC12 (11746883_a_at) / Fold change /veh ABCC12 (11746883_a_at) / RFU TMEM136 (11760407_x_at) / Fold change /veh TMEM136 (11760407_x_at) / RFU CLDN22 /// WWC2 (11732394_at) / Fold change /veh CLDN22 /// WWC2 (11732394_at) / RFU HLA-DPB1 (11760878_x_at) / Fold change /veh HLA-DPB1 (11760878_x_at) / RFU SPINT1 (11716480_a_at) / Fold change /veh SPINT1 (11716480_a_at) / RFU GAP43 (11754022_s_at) / Fold change /veh GAP43 (11754022_s_at) / RFU A4GNT (11735810_at) / Fold change /veh A4GNT (11735810_at) / RFU PRB3 (11715151_x_at) / Fold change /veh PRB3 (11715151_x_at) / RFU TUBB4B (11761932_at) / Fold change /veh TUBB4B (11761932_at) / RFU CAPN14 (11732068_a_at) / Fold change /veh CAPN14 (11732068_a_at) / RFU TMCC2 (11721928_a_at) / Fold change /veh TMCC2 (11721928_a_at) / RFU IRGQ (11745062_a_at) / Fold change /veh IRGQ (11745062_a_at) / RFU FAM174B (11720279_a_at) / Fold change /veh FAM174B (11720279_a_at) / RFU TMPRSS4 (11748680_a_at) / Fold change /veh TMPRSS4 (11748680_a_at) / RFU FAM212B (11763350_a_at) / Fold change /veh FAM212B (11763350_a_at) / RFU PLEKHG5 (11743358_a_at) / Fold change /veh PLEKHG5 (11743358_a_at) / RFU ZSCAN30 (11745921_a_at) / Fold change /veh ZSCAN30 (11745921_a_at) / RFU CMKLR1 (11741424_a_at) / Fold change /veh CMKLR1 (11741424_a_at) / RFU LOC101060620 /// MAPK8IP1 (11723275_at) / Fold change /veh LOC101060620 /// MAPK8IP1 (11723275_at) / RFU SPTSSB (11747773_x_at) / Fold change /veh SPTSSB (11747773_x_at) / RFU PRSS12 (11739890_at) / Fold change /veh PRSS12 (11739890_at) / RFU BIN1 (11741810_x_at) / Fold change /veh BIN1 (11741810_x_at) / RFU WNT11 (11732464_a_at) / Fold change /veh WNT11 (11732464_a_at) / RFU C10orf10 (11716521_a_at) / Fold change /veh C10orf10 (11716521_a_at) / RFU C5orf56 (11738089_at) / Fold change /veh C5orf56 (11738089_at) / RFU CYB561 (11721691_x_at) / Fold change /veh CYB561 (11721691_x_at) / RFU ANKRD19P (11752326_a_at) / Fold change /veh ANKRD19P (11752326_a_at) / RFU OR2T12 /// OR2T33 /// OR2T8 (11738714_s_at) / Fold change /veh OR2T12 /// OR2T33 /// OR2T8 (11738714_s_at) / RFU VCAN (11748164_a_at) / Fold change /veh VCAN (11748164_a_at) / RFU JSRP1 (11732532_at) / Fold change /veh JSRP1 (11732532_at) / RFU KRTAP10-11 (11738290_x_at) / Fold change /veh KRTAP10-11 (11738290_x_at) / RFU MYO3A (11730013_a_at) / Fold change /veh MYO3A (11730013_a_at) / RFU EBF3 (11725865_a_at) / Fold change /veh EBF3 (11725865_a_at) / RFU CAMK2N1 (11719241_x_at) / Fold change /veh CAMK2N1 (11719241_x_at) / RFU C5orf56 (11738088_a_at) / Fold change /veh C5orf56 (11738088_a_at) / RFU OLFML3 (11715873_a_at) / Fold change /veh OLFML3 (11715873_a_at) / RFU LOC100653217 /// NTM (11731650_a_at) / Fold change /veh LOC100653217 /// NTM (11731650_a_at) / RFU MAPK11 (11762145_a_at) / Fold change /veh MAPK11 (11762145_a_at) / RFU FIZ1 (11724087_x_at) / Fold change /veh FIZ1 (11724087_x_at) / RFU OASL (11726364_x_at) / Fold change /veh OASL (11726364_x_at) / RFU SOX15 (11748057_x_at) / Fold change /veh SOX15 (11748057_x_at) / RFU CD79A (11719716_a_at) / Fold change /veh CD79A (11719716_a_at) / RFU HIST1H1D (11736915_at) / Fold change /veh HIST1H1D (11736915_at) / RFU CASKIN2 (11723855_a_at) / Fold change /veh CASKIN2 (11723855_a_at) / RFU LOC730098 (11760151_x_at) / Fold change /veh LOC730098 (11760151_x_at) / RFU OR4N2 (11742367_at) / Fold change /veh OR4N2 (11742367_at) / RFU PRRT2 (11749266_a_at) / Fold change /veh PRRT2 (11749266_a_at) / RFU SNX32 (11753110_a_at) / Fold change /veh SNX32 (11753110_a_at) / RFU CDHR5 (11726645_a_at) / Fold change /veh CDHR5 (11726645_a_at) / RFU RCAN1 (11760418_a_at) / Fold change /veh RCAN1 (11760418_a_at) / RFU FAM167A (11723789_a_at) / Fold change /veh FAM167A (11723789_a_at) / RFU FAM26E (11764081_at) / Fold change /veh FAM26E (11764081_at) / RFU ISYNA1 (11749810_s_at) / Fold change /veh ISYNA1 (11749810_s_at) / RFU ACY1 (11761880_at) / Fold change /veh ACY1 (11761880_at) / RFU 11764098_at / Fold change /veh 11764098_at / RFU SAMD14 (11745864_x_at) / Fold change /veh SAMD14 (11745864_x_at) / RFU NPB (11741838_a_at) / Fold change /veh NPB (11741838_a_at) / RFU TMPRSS6 (11731388_a_at) / Fold change /veh TMPRSS6 (11731388_a_at) / RFU KRTAP10-2 (11738614_at) / Fold change /veh KRTAP10-2 (11738614_at) / RFU ARHGAP8 /// PRR5-ARHGAP8 (11727945_x_at) / Fold change /veh ARHGAP8 /// PRR5-ARHGAP8 (11727945_x_at) / RFU KRTAP5-7 /// NADSYN1 (11734609_at) / Fold change /veh KRTAP5-7 /// NADSYN1 (11734609_at) / RFU RASL12 (11751679_a_at) / Fold change /veh RASL12 (11751679_a_at) / RFU CDKN2B (11736163_a_at) / Fold change /veh CDKN2B (11736163_a_at) / RFU PRF1 (11729649_at) / Fold change /veh PRF1 (11729649_at) / RFU, ZNF638 /// ZNF638-IT1 / Fold change vs veh, ZNF638 /// ZNF638-IT1 / RFU, PANK3 / Fold change vs veh, PANK3 / RFU, SH3YL1 / Fold change vs veh, SH3YL1 / RFU, ZEB2 / Fold change vs veh, ZEB2 / RFU, NRIP1 / Fold change vs veh, NRIP1 / RFU, PTTG1IP / Fold change vs veh, PTTG1IP / RFU, CAPN2 / Fold change vs veh, CAPN2 / RFU, MED14 / Fold change vs veh, MED14 / RFU, SNORA58 / Fold change vs veh, SNORA58 / RFU, C1orf63 / Fold change vs veh, C1orf63 / RFU, LRRFIP1 / Fold change vs veh, LRRFIP1 / RFU, NDUFAF7 / Fold change vs veh, NDUFAF7 / RFU, SLC12A2 / Fold change vs veh, SLC12A2 / RFU, IBTK / Fold change vs veh, IBTK / RFU, ESF1 / Fold change vs veh, ESF1 / Fold change vs veh, TMEM50B / RFU, TAOK1 / Fold change vs veh, TAOK1 / RFU, ACBD3 / Fold change vs veh, ACBD3 / RFU, TMA16 / Fold change vs veh, TMA16 / RFU, RWDD3 / Fold change vs veh, RWDD3 / RFU, BCAT1 / Fold change vs veh, BCAT1 / RFU, EDEM3 / Fold change vs veh, EDEM3 / RFU, TMEM33 / Fold change vs veh, TMEM33 / RFU, WDR75 / Fold change vs veh, WDR75 / RFU, AHCTF1 / Fold change vs veh, AHCTF1 / RFU, TFRC / Fold change vs veh, TFRC / RFU, ZDHHC17 / Fold change vs veh, ZDHHC17 / RFU, NOM1 / Fold change vs veh, NOM1 / RFU, ARL8B / Fold change vs veh, ARL8B / RFU, ZBTB11 / Fold change vs veh, ZBTB11 / RFU, TAMM41 / Fold change vs veh, TAMM41 / RFU, KIAA1704 /// LOC100996395 / Fold change vs veh, KIAA1704 /// LOC100996395 / RFU, ING1 / Fold change vs veh, ING1 / RFU, TRMT61B / Fold change vs veh, TRMT61B / RFU, FUBP3 / Fold change vs veh, FUBP3 / RFU, TP53 / Fold change vs veh, TP53 / RFU, TNKS2 / Fold change vs veh, TNKS2 / RFU, ZFP14 / Fold change vs veh, ZFP14 / RFU, ACTR2 / Fold change vs veh, ACTR2 / RFU, PPP3R1 / Fold change vs veh, PPP3R1 / RFU, PIK3R1 / Fold change vs veh, PIK3R1 / RFU, HNRNPA1 / Fold change vs veh, HNRNPA1 / RFU, RNF170 / Fold change vs veh, RNF170 / RFU, ZNF28 / Fold change vs veh, ZNF28 / RFU, RNGTT / Fold change vs veh, RNGTT / RFU, OGT / Fold change vs veh, OGT / RFU, BRD1 / Fold change vs veh, BRD1 / RFU, MARS / Fold change vs veh, MARS / RFU, ZNF655 / Fold change vs veh, ZNF655 / RFU, FAHD1 / Fold change vs veh, FAHD1 / RFU, BDP1 / Fold change vs veh, BDP1 / RFU, LRRCC1 / Fold change vs veh, LRRCC1 / RFU, ARID1A / Fold change vs veh, ARID1A / RFU, ZNF146 / Fold change vs veh, ZNF146 / RFU, ZNF330 / Fold change vs veh, ZNF330 / RFU, GPN3 / Fold change vs veh, GPN3 / RFU, C9orf123 / Fold change vs veh, C9orf123 / RFU, N4BP2L2 / Fold change vs veh, N4BP2L2 / RFU, ARFIP1 / Fold change vs veh, ARFIP1 / RFU, FAM179B / Fold change vs veh, FAM179B / RFU, BCL10 / Fold change vs veh, BCL10 / RFU, UHRF1BP1L / Fold change vs veh, UHRF1BP1L / RFU, BET1 / Fold change vs veh, BET1 / RFU, CNOT2 / Fold change vs veh, CNOT2 / RFU, ZNF268 / Fold change vs veh, ZNF268 / Fold change vs veh, ZNF507 / RFU, DGCR2 / Fold change vs veh, DGCR2 / RFU, WDSUB1 / Fold change vs veh, WDSUB1 / Fold change vs veh, HSP90B1 /// MIR3652 / RFU, ADSS / Fold change vs veh, ADSS / RFU, GK / Fold change vs veh, GK / RFU, ZNF148 / Fold change vs veh, ZNF148 / RFU, TAF9 / Fold change vs veh, TAF9 / RFU, SLC1A5 / Fold change vs veh, SLC1A5 / RFU, SLMO2 / Fold change vs veh, SLMO2 / RFU, ABCC4 / Fold change vs veh, ABCC4 / RFU, LOC101060439 /// RAP1B / Fold change vs veh, LOC101060439 /// RAP1B / RFU, RFX7 / Fold change vs veh, RFX7 / RFU, GTPBP10 / Fold change vs veh, GTPBP10 / RFU, CNEP1R1 / Fold change vs veh, CNEP1R1 / RFU, BIVM-ERCC5 /// ERCC5 / Fold change vs veh, BIVM-ERCC5 /// ERCC5 / RFU, ILF3 / Fold change vs veh, ILF3 / RFU 11762660_at / Fold change /veh 11762660_at / RFU VCAN (11757783_s_at) / Fold change /veh VCAN (11757783_s_at) / RFU DDX43 (11728927_at) / Fold change /veh DDX43 (11728927_at) / RFU KRT8 (11758188_x_at) / Fold change /veh KRT8 (11758188_x_at) / RFU NKD1 (11759106_at) / Fold change /veh NKD1 (11759106_at) / RFU SRD5A1 (11742802_a_at) / Fold change /veh SRD5A1 (11742802_a_at) / RFU TPSAB1 /// TPSB2 (11721975_s_at) / Fold change /veh TPSAB1 /// TPSB2 (11721975_s_at) / RFU GSTM3 (11746129_a_at) / Fold change /veh GSTM3 (11746129_a_at) / RFU IL23R (11737362_x_at) / Fold change /veh IL23R (11737362_x_at) / RFU TMEM51 (11727254_a_at) / Fold change /veh TMEM51 (11727254_a_at) / RFU PIWIL2 (11732686_x_at) / Fold change /veh PIWIL2 (11732686_x_at) / RFU ORM1 (11744905_x_at) / Fold change /veh ORM1 (11744905_x_at) / RFU CCDC152 (11743942_at) / Fold change /veh CCDC152 (11743942_at) / RFU ECM1 (11717891_a_at) / Fold change /veh ECM1 (11717891_a_at) / RFU IL23R (11748794_a_at) / Fold change /veh IL23R (11748794_a_at) / RFU TNFAIP8L3 (11732012_x_at) / Fold change /veh TNFAIP8L3 (11732012_x_at) / RFU MBOAT4 (11741988_at) / Fold change /veh MBOAT4 (11741988_at) / RFU 11764193_at / Fold change /veh 11764193_at / RFU TMEM53 (11763286_at) / Fold change /veh TMEM53 (11763286_at) / RFU MAGEB2 (11727129_at) / Fold change /veh MAGEB2 (11727129_at) / RFU TMEM200A (11744735_a_at) / Fold change /veh TMEM200A (11744735_a_at) / RFU CCDC152 (11751479_a_at) / Fold change /veh CCDC152 (11751479_a_at) / RFU FAM211A (11726209_a_at) / Fold change /veh FAM211A (11726209_a_at) / RFU RGS16 (11746705_a_at) / Fold change /veh RGS16 (11746705_a_at) / RFU VCAN (11755009_s_at) / Fold change /veh VCAN (11755009_s_at) / RFU RHOB (11743442_s_at) / Fold change /veh RHOB (11743442_s_at) / RFU RGS16 (11720943_a_at) / Fold change /veh RGS16 (11720943_a_at) / RFU RGS16 (11720944_at) / Fold change /veh RGS16 (11720944_at) / RFU, VPS4B / Fold change vs veh, VPS4B / RFU, CREB1 / Fold change vs veh, CREB1 / RFU, DNAJC13 / Fold change vs veh, DNAJC13 / RFU, GNAQ / Fold change vs veh, GNAQ / RFU, CDK5R1 / Fold change vs veh, CDK5R1 / RFU, ZRANB3 / Fold change vs veh, ZRANB3 / RFU, CUL4A / Fold change vs veh, CUL4A / RFU, CCNY / Fold change vs veh, CCNY / RFU, UFL1 / Fold change vs veh, UFL1 / RFU, COG3 / Fold change vs veh, COG3 / RFU, DIAPH2 / Fold change vs veh, DIAPH2 / RFU, SKA2 / Fold change vs veh, SKA2 / RFU, AFF3 / Fold change vs veh, AFF3 / RFU, LMF1 / Fold change vs veh, LMF1 / RFU, IPO11 / Fold change vs veh, IPO11 / RFU, DFFB / Fold change vs veh, DFFB / RFU, FOXP1 / Fold change vs veh, FOXP1 / RFU, CARD8 / Fold change vs veh, CARD8 / RFU, STRN3 / Fold change vs veh, STRN3 / RFU, ADK / Fold change vs veh, ADK / RFU, RASSF2 / Fold change vs veh, RASSF2 / RFU, WIPF1 / Fold change vs veh, WIPF1 / RFU, LARP1B / Fold change vs veh, LARP1B / RFU, RASA1 / Fold change vs veh, RASA1 / RFU, RB1 / Fold change vs veh, RB1 / RFU, PPFIA1 / Fold change vs veh, PPFIA1 / RFU, MAT2A / Fold change vs veh, MAT2A / RFU, CCT5 / Fold change vs veh, CCT5 / RFU, WDR92 / Fold change vs veh, WDR92 / RFU, CUX1 / Fold change vs veh, CUX1 / RFU, TTC7A / Fold change vs veh, TTC7A / RFU, TMEM135 / Fold change vs veh, TMEM135 / RFU, DEPTOR / Fold change vs veh, DEPTOR / RFU, CPM / Fold change vs veh, CPM / RFU, DNAJB6 / Fold change vs veh, DNAJB6 / RFU, CACNA2D3 / Fold change vs veh, CACNA2D3 / RFU, DTX4 / Fold change vs veh, DTX4 / RFU, TFCP2 / Fold change vs veh, TFCP2 / RFU, GMCL1 /// GMCL1P1 / Fold change vs veh, GMCL1 /// GMCL1P1 / RFU, AEBP2 / Fold change vs veh, AEBP2 / RFU, SNHG1 /// SNORD22 /// SNORD25 /// SNORD26 /// SNORD27 /// SNORD28 /// SNORD29 /// SNORD31 / Fold change vs veh, SNHG1 /// SNORD22 /// SNORD25 /// SNORD26 /// SNORD27 /// SNORD28 /// SNORD29 /// SNORD31 / Fold change (Aza/veh), C12orf56 (ProbeSet 11735607_a_at) / Fold change (ACY-1035/veh), C12orf56 (ProbeSet 11735607_a_at) / Fold change (Aza/veh), FGFR1OP (ProbeSet 11751329_s_at) / Fold change (ACY-1035/veh), FGFR1OP (ProbeSet 11751329_s_at) / Fold change (Aza/veh), VPS36 (ProbeSet 11739960_a_at) / Fold change (ACY-1035/veh), VPS36 (ProbeSet 11739960_a_at) / RFU SYPL1 (11715823_x_at) / Fold change /veh SYPL1 (11715823_x_at) / RFU IGFBP7 (11715501_s_at) / Fold change /veh IGFBP7 (11715501_s_at) / RFU REEP3 (11722064_at) / Fold change /veh REEP3 (11722064_at) / RFU IGLL1 (11728026_x_at) / Fold change /veh IGLL1 (11728026_x_at): dose or concentration left out as unconfirmed
Conditions: MV-4-11 cells, 48 hours

Which “RFU CCDC152 (11751479_a_at)” value does the source give for `Nc1ncn([C@@H]2O[C@H](CO)[C@@H](O)[C@H]2O)c(=O)n1` [azacitidine] here?
Its value is 11.18 RFU.
